# Experimental data: patent US10401298B2, “Label-free detection of small and large molecule interactions, and activities in biological systems” (Arizona Board of Regents on behalf of Arizona State …, priority 2014, dated 2019)
# Where two headings read alike, the source gives them in different places.
# How the values were obtained:
# wild type SH-EP1 cells = experiment: Control: response of wild type SH-EP1 cells (no nAChRs expressed) to acetylcholine; assay type: binding, human; settings: wild type SH-EP1 cells without nAChRs, 500 nM acetylcholine
# Description: H are shown. The scale bar is 20 μm.
# Curve 370 represents the measurements for cell G and lighter curve 370 represents the measurements for cell H.
# [1] = target: human α4β2 nicotinic acetylcholine receptors (nAChRs) (Homo sapiens, UniProt P17787+P43681); settings: FIG. 5F, 100 nM Acetylcholine
# human α4β2 nicotinic acetylcholine receptors (nAChRs), sequence (P43681 29-627 limits assumed): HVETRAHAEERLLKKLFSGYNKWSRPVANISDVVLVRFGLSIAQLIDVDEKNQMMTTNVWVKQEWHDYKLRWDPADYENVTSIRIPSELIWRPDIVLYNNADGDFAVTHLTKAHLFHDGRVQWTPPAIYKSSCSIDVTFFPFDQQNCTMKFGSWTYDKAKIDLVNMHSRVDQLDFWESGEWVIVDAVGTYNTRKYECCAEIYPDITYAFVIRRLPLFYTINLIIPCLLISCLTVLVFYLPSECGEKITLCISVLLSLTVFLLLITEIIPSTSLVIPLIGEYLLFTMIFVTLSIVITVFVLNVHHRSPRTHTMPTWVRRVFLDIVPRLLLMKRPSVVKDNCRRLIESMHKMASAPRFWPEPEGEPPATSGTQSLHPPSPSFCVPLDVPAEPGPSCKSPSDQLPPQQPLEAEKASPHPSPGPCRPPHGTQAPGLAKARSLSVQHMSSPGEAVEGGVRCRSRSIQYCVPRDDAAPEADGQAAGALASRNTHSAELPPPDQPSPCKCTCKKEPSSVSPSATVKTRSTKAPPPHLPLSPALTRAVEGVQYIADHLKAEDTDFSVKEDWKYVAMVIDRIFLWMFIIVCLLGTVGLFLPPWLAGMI
# human α4β2 nicotinic acetylcholine receptors (nAChRs), sequence (P17787 26-502): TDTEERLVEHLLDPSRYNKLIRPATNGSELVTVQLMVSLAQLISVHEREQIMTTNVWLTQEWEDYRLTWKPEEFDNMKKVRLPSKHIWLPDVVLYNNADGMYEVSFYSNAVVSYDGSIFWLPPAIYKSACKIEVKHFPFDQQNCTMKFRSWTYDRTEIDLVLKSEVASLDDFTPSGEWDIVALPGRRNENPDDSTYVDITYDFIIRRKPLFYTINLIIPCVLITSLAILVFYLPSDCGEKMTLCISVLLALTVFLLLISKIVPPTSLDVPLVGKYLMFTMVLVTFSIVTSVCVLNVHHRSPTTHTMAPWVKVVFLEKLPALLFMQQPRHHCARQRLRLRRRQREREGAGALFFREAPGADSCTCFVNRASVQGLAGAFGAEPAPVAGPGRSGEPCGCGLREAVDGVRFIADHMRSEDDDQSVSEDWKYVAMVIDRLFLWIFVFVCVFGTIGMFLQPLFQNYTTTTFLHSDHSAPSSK
# Description: The edge of a cell 5 can be manually defined from the optical image of the cell, but an imaging processing algorithm can automatically detect the cell edge, providing high throughput. After determining the cell edge, a region of interest (ROI) is selected at a location of the cell edge. The ROI can be a rectangular shape30 with the cell edge 32 passing through the center portion of the rectangle, dividing the rectangle into two equal halves, one half 34 is inside of the cell, and the second half 36 falls outside of the cell. We denote the intensities of the two halves of the differential image as A and B, and (A−B)/(A+B) is calculated and used to determine the movement of the cell edge at each location. […]
# The relation between the cell edge movement and the measured differential image intensity change from one of the above differential optical detection method can be determined as below. […] The edge of one cell is manually chosen and the centroid (O) of the cell is determined (FIGS. 1B and 1C). […] The cell edge movement was calculated at every 10 starting from 0 (FIG. 1E). The ROI at a certain point of the cell edge (point A) is then shifted by different numbers of pixels outwards (perpendicular to the tangential line at point A), and the corresponding changes in the differential image intensity is determined from the image. […]
compound,measurement,setting,value
"CC(=O)OCC[N+](C)(C)C.[Cl-] [acetylcholine, acetylcholine chloride]",deformation in the cell membrane,wild type SH-EP1 cells,no deformation
same,amount of cell membrane deformation after acetylcholine binding,"[1]; lower end of range, at region 592",about −40 nm
same,amount of cell membrane deformation after acetylcholine binding,"[1]; upper end of range, at arrow 590",about 80 nm
